Measurements taken from patent publication US7863416B2, “Nociceptin-based analgesics” (Synvax, Inc., priority 2001, dated 2011).
Numbered stars: 1 amine (or outer) side, 2 acyl side, 3 side chain; on linkers, the order of the positions; unused ones are H or OH. Square brackets hold non-standard residues; d marks the D form. Peptide text beside a SMILES is read from it. X1 = O=C([C@H](CCc1ccc([N+](=O)[O-])cc1[N+](=O)[O-])N[*:1])[*:2]; Phe(4-CH2SO3H) = N[C@@H](Cc1ccc(CS(=O)(=O)O)cc1)C(=O)O; Phe(4-NO2) = N[C@@H](Cc1ccc([N+](=O)[O-])cc1)C(=O)O; Trp(5-CN) = N#Cc1ccc2[nH]cc(C[C@H](N)C(=O)O)c2c1; Phe(4-COOH) = N[C@@H](Cc1ccc(C(=O)O)cc1)C(=O)O; Phe(4-CN) = N#Cc1ccc(C[C@H](N)C(=O)O)cc1; Phe(4-NH2) = Nc1ccc(C[C@H](N)C(=O)O)cc1; Phe(4-F) = N[C@@H](Cc1ccc(F)cc1)C(=O)O; Phe(4-Me) = Cc1ccc(C[C@H](N)C(=O)O)cc1; Dmt = Cc1cc(O)cc(C)c1C[C@H](N)C(=O)O; hPhe = N[C@@H](CCc1ccccc1)C(=O)O; Dab = NCC[C@H](N)C(=O)O; Dap = NC[C@H](N)C(=O)O; Ahx = NCCCCCC(=O)O

Tests used:
human ORL1 [1] = target: T1, human ORL1 (Homo sapiens, UniProt P41146); assay: [3H]nociceptin binding to membranes of CHO cells transfected with human ORL1; conditions: for Hill Coefficient: Table 5
T1 construct: expressed in transfected cells; host or cells: CHO cells (G418-selected)

human ORL1 [2] = target: T1, human ORL1; assay: Stimulation of [35S]GTPγS binding in membranes of CHO cells transfected with human ORL-1; type: biochemical; conditions: for EC50 ± SEM, stimulation of [35S]GTPγS binding: Table 6; for Emax: read-out: % Stimulation ± SEM of [35S]GTPγS binding
Description: First, CHO cells transfected with human ORL-1 are scraped from tissue culture dishes into 20 mM HEPES, 1 mM EDTA, and then centrifuged at 500×g for 10 minutes. The cells are then re-suspended in this buffer and homogenized using a Polytron Homogenizer.
The cellular homogenate is next centrifuged at 20,000×g for 20 minutes. Following this, the resulting pellet is re-suspended in a buffer containing 20 mM HEPES, 10 mM MgCl2, and 100 mM NaCl, having a resulting pH of 7.4. The suspension is then re-centrifuged at 20,000×g and suspended once more in the above-listed buffer. The pellet may be frozen at −70° C. prior to the final centrifugation. For the binding assay, membranes (10-20 μg protein) are incubated with [^35S]GTPγγS (50 pM), GDP (usually 10 μM), and the desired compound. The total volume of the mixture is 1 ml, which is incubated for 60 min at 25° C.
Following incubation, samples are filtered over glass fiber filters and counted. […]
In these [^35S]GTPγS assays, binding was conducted as described above. EC50 values and percent stimulation were determined using the program Prism.

T1 sequence (P41146 whole entry): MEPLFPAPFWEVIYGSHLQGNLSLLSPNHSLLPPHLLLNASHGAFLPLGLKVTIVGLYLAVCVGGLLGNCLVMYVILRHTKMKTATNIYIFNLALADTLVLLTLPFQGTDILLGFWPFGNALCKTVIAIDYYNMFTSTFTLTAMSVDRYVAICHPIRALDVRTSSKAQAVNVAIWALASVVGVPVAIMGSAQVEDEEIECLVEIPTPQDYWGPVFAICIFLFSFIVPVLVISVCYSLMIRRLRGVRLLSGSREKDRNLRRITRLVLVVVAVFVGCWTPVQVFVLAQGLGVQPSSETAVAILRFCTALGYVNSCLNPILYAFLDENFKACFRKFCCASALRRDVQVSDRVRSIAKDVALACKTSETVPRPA

| Structure (SMILES) | Hill Coefficient (human ORL1 [1]) | EC50 ± SEM, stimulation of [35S]GTPγS binding (human ORL1 [2]) | Emax (human ORL1 [2]) | agonist/antagonist character at ORL1 (human ORL1 [2]; in words) | Ki (human ORL1 [1]) |
| --- | --- | --- | --- | --- | --- |
| CC(=O)N[C@@H](CCCNC(=N)N)C(=O)N[C@@H](Cc1ccc(C)cc1)C(=O)N[C@@H](Cc1ccc(C)cc1)C(=O)N[C@@H](CCCNC(=N)N)C(=O)N[C@@H](Cc1c[nH]c2ccccc12)C(=O)N[C@@H](CCCNC(=N)N)C(N)=O [VII-17-B, Ac-Arg-Phe(4-Me)-Phe(4-Me)-Arg-Trp-Arg-NH2] (Ac-R[Phe(4-Me)][Phe(4-Me)]RWR-NH2) | 1.06 | FLAT | < 20% | – | – |
| CC(=O)N[C@@H](CCCNC(=N)N)C(=O)N[C@@H](Cc1ccc(C(=O)O)cc1)C(=O)N[C@@H](Cc1ccc(O)cc1)C(=O)N[C@@H](CCCNC(=N)N)C(=O)N[C@@H](Cc1c[nH]c2ccccc12)C(=O)N[C@@H](CCCNC(=N)N)C(N)=O [VII-19-B, Ac-Arg-Phe(4-COOH)-Tyr-Arg-Trp-Arg-NH2] (Ac-R[Phe(4-COOH)]YRWR-NH2) | 1.0 | – | 45.5 ± 8% | – | – |
| CC(=O)N[C@@H](CCCNC(=N)N)C(=O)N[C@@H](Cc1ccc([N+](=O)[O-])cc1)C(=O)N[C@@H](Cc1ccc(O)cc1)C(=O)N[C@@H](CCCNC(=N)N)C(=O)N[C@@H](Cc1c[nH]c2ccccc12)C(=O)N[C@@H](CCCNC(=N)N)C(N)=O [VII-23-B, Ac-Arg-Phe(NO2)-Tyr-Arg-Trp-Arg-NH2] (Ac-R[Phe(4-NO2)]YRWR-NH2) | 0.74 | – | 56.6 ± 20.4% | – | – |
| CC(=O)N[C@@H](CCCNC(=N)N)C(=O)N[C@@H](Cc1ccc(F)cc1)C(=O)N[C@@H](Cc1ccc(O)cc1)C(=O)N[C@@H](CCCNC(=N)N)C(=O)N[C@@H](Cc1c[nH]c2ccccc12)C(=O)N[C@@H](CCCNC(=N)N)C(N)=O [VII-31-B, Ac-Arg-Phe(4-F)-Tyr-Arg-Trp-Arg-NH2] (Ac-R[Phe(4-F)]YRWR-NH2) | 0.81 | – | 54.4 ± 1.2% | – | – |
| CC(=O)N[C@@H](CCCNC(=N)N)C(=O)N[C@@H](Cc1ccc(F)cc1)C(=O)N[C@@H](Cc1ccc(F)cc1)C(=O)N[C@@H](CCCNC(=N)N)C(=O)N[C@@H](Cc1c[nH]c2ccccc12)C(=O)N[C@@H](CCCNC(=N)N)C(N)=O [VII-33-B, Ac-Arg-Phe(4-F)-Phe(4-F)-Arg-Trp-Arg-NH2] (Ac-R[Phe(4-F)][Phe(4-F)]RWR-NH2) | 0.89 | FLAT | < 20% | – | – |
| COc1ccc(C[C@H](NC(=O)[C@H](CCCNC(=N)N)NC(C)=O)C(=O)N[C@@H](Cc2ccc(O)cc2)C(=O)N[C@@H](CCCNC(=N)N)C(=O)N[C@@H](Cc2c[nH]c3ccccc23)C(=O)N[C@@H](CCCNC(=N)N)C(N)=O)cc1 [VII-35-C, Ac-Arg-Tyr(4-Me)-Tyr-Arg-Trp-Arg-NH2] (Ac-RY(Me)YRWR-NH2) | 0.75 | – | 52.1 ± 0.6% | – | – |
| COc1ccc(C[C@H](NC(=O)[C@H](CCCNC(=N)N)NC(C)=O)C(=O)N[C@@H](Cc2ccc(OC)cc2)C(=O)N[C@@H](CCCNC(=N)N)C(=O)N[C@@H](Cc2c[nH]c3ccccc23)C(=O)N[C@@H](CCCNC(=N)N)C(N)=O)cc1 [VII-37-B, Ac-Arg-Tyr(4-Me)-Tyr(4-Me)-Arg-Trp-Arg-NH2] (Ac-RY(Me)Y(Me)RWR-NH2) | 0.82 | FLAT | < 20% | – | – |
| CC(=O)N[C@@H](CCCNC(=N)N)C(=O)N[C@@H](Cc1ccc(C#N)cc1)C(=O)N[C@@H](Cc1ccc(O)cc1)C(=O)N[C@@H](CCCNC(=N)N)C(=O)N[C@@H](Cc1c[nH]c2ccccc12)C(=O)N[C@@H](CCCNC(=N)N)C(N)=O [VII-43-C, Ac-Arg-Phe(4-CN)-Tyr-Arg-Trp-Arg-NH2] (Ac-R[Phe(4-CN)]YRWR-NH2) | 0.73 | – | 49.7 ± 6.6% | partial agonist | – |
| CC(=O)N[C@@H](CCCNC(=N)N)C(=O)N[C@@H](CCc1ccccc1)C(=O)N[C@@H](CCc1ccccc1)C(=O)N[C@@H](CCCNC(=N)N)C(=O)N[C@@H](Cc1c[nH]c2ccccc12)C(=O)N[C@@H](CCCNC(=N)N)C(N)=O [VII-49-B, Ac-Arg-hPhe-hPhe-Arg-Trp-Arg-NH2] (Ac-R[hPhe][hPhe]RWR-NH2) | 0.94 | FLAT | < 20% | – | – |
| CC(=O)N[C@@H](CCCNC(=N)N)C(=O)N[C@@H](Cc1ccc(O)cc1)C(=O)N[C@@H](Cc1ccc(O)cc1)C(=O)N[C@@H](CCCNC(=N)N)C(=O)N[C@@H](Cc1c[nH]c2ccc(C#N)cc12)C(=O)N[C@@H](CCCNC(=N)N)C(N)=O [VII-51-A, Ac-Arg-Tyr-Tyr-Arg-Trp(5-CN)-Arg-NH2] (Ac-RYYR[Trp(5-CN)]R-NH2) | 0.7 | – | 49.1 ± 0.19% | – | 0.3 ± 0.133 nM |
| CC(=O)NCCCCCC(=O)N[C@@H](Cc1ccc(O)cc1)C(=O)N[C@@H](Cc1ccc(O)cc1)C(=O)N[C@@H](CCCNC(=N)N)C(=O)N[C@@H](Cc1c[nH]c2ccccc12)C(=O)N[C@@H](CCCNC(=N)N)C(N)=O [VII-53-B, Ac-ε-aminocaproyl-Tyr-Tyr-Arg-Trp-Arg-NH2] (Ac-[Ahx]YYRWR-NH2) | 0.86 | – | 39.5 ± 4% | – | – |
| CC(=O)N[C@@H](CCCNC(=N)N)C(=O)N[C@@H](Cc1ccc(O)cc1)C(=O)N[C@@H](Cc1ccc(O)cc1)C(=O)NCCCCCC(=O)N[C@@H](Cc1c[nH]c2ccccc12)C(=O)N[C@@H](CCCNC(=N)N)C(N)=O [VII-55-A, Ac-Arg-Tyr-Tyr-ε-aminocaproyl-Trp-Arg-NH2] (Ac-RYY[Ahx]WR-NH2) | 1.12 | – | 26.6 ± 1.95% | – | – |
| CC(=O)N[C@@H](CCCNC(=N)N)C(=O)N[C@@H](Cc1ccc(O)cc1)C(=O)N[C@@H](Cc1ccc(O)cc1)C(=O)N[C@@H](CCCNC(=N)N)C(=O)N[C@@H](Cc1c[nH]c2ccccc12)C(=O)NCCCCCC(N)=O [VII-57-C, Ac-Arg-Tyr-Tyr-Arg-Trp-ε-aminocaproyl-NH2] (Ac-RYYRW[Ahx]-NH2) | 0.95 | – | 37.4 ± 2.64% | – | – |
| CC(=O)N[C@@H](CCCNC(=N)N)C(=O)N[C@@H](Cc1ccc(O)cc1)C(=O)N[C@@H](Cc1ccc(F)cc1)C(=O)N[C@@H](CCCNC(=N)N)C(=O)N[C@@H](Cc1c[nH]c2ccccc12)C(=O)N[C@@H](CCCNC(=N)N)C(N)=O [VII-61-B, Ac-Arg-Tyr-Phe(4-F)-Arg-Trp-Arg-NH2] (Ac-RY[Phe(4-F)]RWR-NH2) | 1.05 | – | 70.4 ± 1.98% | – | 0.05 nM |
| CC(=O)N[C@@H](CCCNC(=N)N)C(=O)N[C@@H](Cc1ccc(O)cc1)C(=O)N[C@@H](Cc1ccc([N+](=O)[O-])cc1)C(=O)N[C@@H](CCCNC(=N)N)C(=O)N[C@@H](Cc1c[nH]c2ccccc12)C(=O)N[C@@H](CCCNC(=N)N)C(N)=O [VII-63-B, Ac-Arg-Tyr-Phe(4-NO2)-Arg-Trp-Arg-NH2] (Ac-RY[Phe(4-NO2)]RWR-NH2) | 1.01 | – | 43.2 ± 0.59% | – | – |
| CC(=O)N[C@@H](CN)C(=O)N[C@@H](Cc1ccc(O)cc1)C(=O)N[C@@H](Cc1ccc(O)cc1)C(=O)N[C@@H](CCCNC(=N)N)C(=O)N[C@@H](Cc1c[nH]c2ccccc12)C(=O)N[C@@H](CCCNC(=N)N)C(N)=O [VII-65-F, Ac-Dap-Tyr-Tyr-Arg-Trp-Arg-NH2] (Ac-[Dap]YYRWR-NH2) | 1.1 | FLAT | 13.7 ± 1.18% | – | – |
| CC(=O)N[C@@H](CCN)C(=O)N[C@@H](Cc1ccc(O)cc1)C(=O)N[C@@H](Cc1ccc(O)cc1)C(=O)N[C@@H](CCCNC(=N)N)C(=O)N[C@@H](Cc1c[nH]c2ccccc12)C(=O)N[C@@H](CCCNC(=N)N)C(N)=O [VII-67-A, Ac-Dab-Tyr-Tyr-Arg-Trp-Arg-NH2] (Ac-[Dab]YYRWR-NH2) | 1.07 | FLAT | < 20% | – | – |
| CC(=O)N[C@@H](CCCNC(=N)N)C(=O)N[C@@H](Cc1ccc(O)cc1)C(=O)N[C@@H](CCc1ccc([N+](=O)[O-])cc1[N+](=O)[O-])C(=O)N[C@@H](CCCNC(=N)N)C(=O)N[C@@H](Cc1c[nH]c2ccccc12)C(=O)N[C@@H](CCCNC(=N)N)C(N)=O [VII-71-B, Ac-Arg-Tyr-hPhe(2,4-di-NO2)-Arg-Trp-Arg-NH2] (Ac-RY[X1]RWR-NH2) | 0.88 | – | 33.6 ± 16.8% | – | – |
| CC(=O)N[C@@H](CCCNC(=N)N)C(=O)N[C@@H](Cc1ccc(O)cc1)C(=O)N[C@@H](Cc1c(C)cc(O)cc1C)C(=O)N[C@@H](CCCNC(=N)N)C(=O)N[C@@H](Cc1c[nH]c2ccccc12)C(=O)N[C@@H](CCCNC(=N)N)C(N)=O [VII-73-A, Ac-Arg-Tyr-Tyr(2,6-di-Me)-Arg-Trp-Arg-NH2] (Ac-RY[Dmt]RWR-NH2) | 0.95 | – | 52.7 ± 0.175% | – | – |
| CC(=O)N[C@@H](CCCNC(=N)N)C(=O)N[C@@H](Cc1ccc(O)cc1)C(=O)N[C@@H](Cc1ccc(CS(=O)(=O)O)cc1)C(=O)N[C@@H](CCCNC(=N)N)C(=O)N[C@@H](Cc1c[nH]c2ccccc12)C(=O)N[C@@H](CCCNC(=N)N)C(N)=O [VII-75-B, Ac-Arg-Tyr-Phe(4-CH2SO3H)-Arg-Trp-Arg-NH2] (Ac-RY[Phe(4-CH2SO3H)]RWR-NH2) | 0.75 | FLAT | < 20% | – | – |
| CC(=O)Nc1ccc(C[C@H](NC(=O)[C@H](Cc2ccc(O)cc2)NC(=O)[C@H](CCCNC(=N)N)NC(C)=O)C(=O)N[C@@H](CCCNC(=N)N)C(=O)N[C@@H](Cc2c[nH]c3ccccc23)C(=O)N[C@@H](CCCNC(=N)N)C(N)=O)cc1 [VII-77-A, Ac-Arg-Tyr-Phe(4-NHAc)-Arg-Trp-Arg-NH2] (Ac-RY[Phe(4-NH2)](Ac)RWR-NH2) | 0.62 | – | 19 ± 6.92% | – | – |
